Data: patent US9597407B2, “Targeted antimicrobial moieties” (C3 Jian, Inc., priority 2009, dated 2017)
Entries after “also recorded” stand apart in the source; their conditions may differ.

What was measured:
microorganisms = test: Morphology, biofilm and growth disruption by peptides (Table 5); assay type: cell-based; parameters: key: A: Peptide aggregates; B: Less hyphal formation; Clumps; Diffuse clumps and small polyps; F: Diffuse growth; H: Thin; I: Growth inhibition; Microcolony formation; Rippled; Small polyps; Thick; W: Halo formation on top, microlonies on bottom
From the text: In certain embodiments peptides that induce alterations in phenotype or other biological activities can also be used as antimicrobial effector moieties.

bacteria = test: Binding of targeting peptides to microorganisms (Table 3); details: preferably 1x PBS; for Target(s) (microorganism bound by the targeting peptide) / Target(s) (microorganisms bound by the targeting peptide): peptide binding in aqueous buffers that varied depending on peptide solubility
[1] = microorganism bound by the targeting peptide, binding in aqueous buffers chosen by peptide solubility

## PF-C055 (YNLSIYIYFLHTITIAGLITLPFII; Peptide with targeting and/or antimicrobial activity)
microorganisms; F. nucleatum
  Organism, effect (morphology, biofilm and growth disruption): F. nucleatum (T)
microorganisms; S. mutans
  Organism, effect (morphology, biofilm and growth disruption): S. mutans (I)
bacteria
  Target(s) (microorganism bound by the targeting peptide): A. naeslundii; also recorded: F. nucleatum; also recorded: P. gingivalis; also recorded: S. mutans

## SFMPEIQKNTIPTQMK [PF-512]
microorganisms; S. pneumoniae
  Organism, effect (morphology, biofilm and growth disruption): S. pneumoniae (H)
bacteria
  Target(s) (microorganisms bound by the targeting peptide): S. pneumoniae; also recorded: C. jeikeium

## PF-696 (chain 1 IRSGISAAYARPLR; chain 2 IRSGISAAYARPLR; Peptide with targeting and/or antimicrobial activity)
microorganisms; S. pneumoniae
  Organism, effect (morphology, biofilm and growth disruption): S. pneumoniae (H)
bacteria
  Target(s) (microorganism bound by the targeting peptide): Mycobacteria spp

## PF-074 (RDIHPIYFMTKD; Peptide with targeting and/or antimicrobial activity)
microorganisms; MRSA
  Organism, effect: MRSA (M)
microorganisms; S. epidermidis
  Organism, effect: S. epidermidis (D)
bacteria; [1]
  Target(s): S. epidermidis and M. luteus and MRSA

## PF-596 (SKMWDKILTILILILELIRELIKL; Peptide with targeting and/or antimicrobial activity)
microorganisms; C. jejuni
  Organism, effect (morphology, biofilm and growth disruption): C. jejuni (D)
microorganisms; E. coli
  Organism, effect (morphology, biofilm and growth disruption): E. coli (C)
microorganisms; E. faecalis
  Organism, effect (morphology, biofilm and growth disruption): E. faecalis (D)
microorganisms; MRSA
  Organism, effect (morphology, biofilm and growth disruption): MRSA (D)
microorganisms; S. epidermidis
  Organism, effect (morphology, biofilm and growth disruption): S. epidermidis (D)
microorganisms; S. pneumoniae
  Organism, effect (morphology, biofilm and growth disruption): S. pneumoniae (D)
bacteria
  Target(s) (microorganisms bound by the targeting peptide): S. epidermidis and M. luteus and P. mirabilis and E. coli and P. aeruginosa and MRSA and E. faecalis

## PF-700 (chain 1 LNWPFTGR; chain 2 LNWPFTGR; Peptide with targeting and/or antimicrobial activity)
microorganisms; S. pneumoniae
  Organism, effect (morphology, biofilm and growth disruption): S. pneumoniae (C)
bacteria
  Target(s) (microorganism bound by the targeting peptide): Mycobacteria spp

## DEIKVSDEEIEKFIKENNL [PF-597]
microorganisms; E. faecalis
  Organism, effect (morphology, biofilm and growth disruption): E. faecalis (A)
bacteria
  Target(s) (microorganism bound by the targeting peptide): P. mirabilis

## PF-425 (MMELVLKTIIGPIVVGVVLRIVDKWLNKDK; Peptide with targeting and/or antimicrobial activity)
microorganisms; C. albicans
  Organism, effect (morphology, biofilm and growth disruption): C. albicans (A)
microorganisms; C. jejuni
  Organism, effect (morphology, biofilm and growth disruption): C. jejuni (D)
microorganisms; E. coli
  Organism, effect (morphology, biofilm and growth disruption): E. coli (C)
microorganisms; E. faecalis
  Organism, effect (morphology, biofilm and growth disruption): E. faecalis (D)
microorganisms; MRSA
  Organism, effect (morphology, biofilm and growth disruption): MRSA (D)
microorganisms; P. aeruginosa
  Organism, effect (morphology, biofilm and growth disruption): P. aeruginosa (A)
microorganisms; S. epidermidis
  Organism, effect (morphology, biofilm and growth disruption): S. epidermidis (D)
microorganisms; S. pneumoniae
  Organism, effect (morphology, biofilm and growth disruption): S. pneumoniae (D)
bacteria
  Target(s) (microorganisms bound by the targeting peptide): S. epidermidis and M. luteus and E. coli and P. aeruginosa and C. albicans and MRSA and S. pneumoniae and C. jeikeium

## PF-212 (NDSKASN; Peptide with targeting and/or antimicrobial activity)
microorganisms; M. luteus
  Organism, effect: M. luteus (M)
bacteria; [1]
  Target(s): M. luteus; also recorded: P. aeruginosa

## PF-C139 (LLASHPERLSLGVFFVYRVLHLLLENT; Peptide with targeting and/or antimicrobial activity)
microorganisms; S. mutans
  Organism, effect (morphology, biofilm and growth disruption): S. mutans (F)
bacteria
  Target(s) (microorganism bound by the targeting peptide): A. naeslundii; also recorded: F. nucleatum; also recorded: P. gingivalis; also recorded: S. mutans; also recorded: T. denticola

## PF-171 (TQVTLCRTW; Peptide with targeting and/or antimicrobial activity)
microorganisms; B. subtilis
  Organism, effect: B. subtilis (D)
microorganisms; C. jejuni
  Organism, effect: C. jejuni (R)
microorganisms; M. luteus
  Organism, effect: M. luteus (R)
microorganisms; MRSA
  Organism, effect: MRSA (M)
microorganisms; S. epidermidis
  Organism, effect: S. epidermidis (R)
microorganisms; S. pneumoniae
  Organism, effect: S. pneumoniae (D)
bacteria; [1]
  Target(s): S. epidermidis; also recorded: E. coli; also recorded: P. aeruginosa; also recorded: S. pneumoniae

## PF-C075 (KALVISVFAIVFSIIFVKFFYWRDKK; Peptide with targeting and/or antimicrobial activity)
microorganisms; F. nucleatum
  Organism, effect (morphology, biofilm and growth disruption): F. nucleatum (T)
microorganisms; P. gingivalis
  Organism, effect (morphology, biofilm and growth disruption): P. gingivalis (R)
microorganisms; S. mutans
  Organism, effect (morphology, biofilm and growth disruption): S. mutans (F)
bacteria
  Target(s) (microorganism bound by the targeting peptide): A. naeslundii; also recorded: F. nucleatum; also recorded: P. gingivalis; also recorded: S. mutans; also recorded: T. denticola

## PF-636 (chain 1 LVRLA; chain 2 LVRLA; Peptide with targeting and/or antimicrobial activity)
microorganisms; B. subtilis
  Organism, effect (morphology, biofilm and growth disruption): B. subtilis (H)
microorganisms; C. albicans
  Organism, effect (morphology, biofilm and growth disruption): C. albicans (B)
microorganisms; E. faecalis
  Organism, effect (morphology, biofilm and growth disruption): E. faecalis (H)
microorganisms; S. pneumoniae
  Organism, effect (morphology, biofilm and growth disruption): S. pneumoniae (H)
bacteria
  Target(s) (microorganism bound by the targeting peptide): S. epidermidis and C. albicans and MRSA and S. pneumoniae and E. faecalis

## PF-C181 (KMRAGQVVFIYKLILVLLFYVLQKLFDLKKGCF; Peptide with targeting and/or antimicrobial activity)
microorganisms; F. nucleatum
  Organism, effect (morphology, biofilm and growth disruption): F. nucleatum (T)
bacteria
  Target(s) (microorganism bound by the targeting peptide): P. gingivalis

## GNVHPESDFHNLIQFIKTFLYFTIFFKYFL [PF-C290]
microorganisms; S. mutans
  Organism, effect (morphology, biofilm and growth disruption): S. mutans (F)
bacteria
  Target(s) (microorganism bound by the targeting peptide): A. naeslundii; also recorded: F. nucleatum; also recorded: P. gingivalis; also recorded: S. mutans; also recorded: T. denticola

## LHVIRPRPELSELKFPITKILKVNKQGLKK [PF-752]
microorganisms; S. pneumoniae
  Organism, effect (morphology, biofilm and growth disruption): S. pneumoniae (C)
bacteria
  Target(s) (microorganism bound by the targeting peptide): S. epidermidis and E. coli and MRSA and S. pneumoniae and E. faecalis

## PF-149 (GKVSVLTRVPRSLGGAPANQ; Peptide with targeting and/or antimicrobial activity)
microorganisms; MRSA
  Organism, effect: MRSA (H)
bacteria; [1]
  Target(s): S. epidermidis and M. luteus and E. coli and MRSA and C. jeikeium

## PF-684 (chain 1 RKLSLASGFALWRRSLV; chain 2 RKLSLASGFALWRRSLV; Peptide with targeting and/or antimicrobial activity)
microorganisms; C. albicans
  Organism, effect (morphology, biofilm and growth disruption): C. albicans (B)
microorganisms; E. faecalis
  Organism, effect (morphology, biofilm and growth disruption): E. faecalis (A)
microorganisms; S. pneumoniae
  Organism, effect (morphology, biofilm and growth disruption): S. pneumoniae (C)
bacteria
  Target(s) (microorganism bound by the targeting peptide): Mycobacteria spp

## PF-249 (INSRYKISF; Peptide with targeting and/or antimicrobial activity)
microorganisms; M. luteus
  Organism, effect: M. luteus (R)
bacteria; [1]
  Target(s): S. epidermidis; also recorded: M. luteus

## PF-430 (AVVCGYLAYTATS; Peptide with targeting and/or antimicrobial activity)
microorganisms; MRSA
  Organism, effect (morphology, biofilm and growth disruption): MRSA (M)
microorganisms; S. epidermidis
  Organism, effect (morphology, biofilm and growth disruption): S. epidermidis (M)
microorganisms; S. pneumoniae
  Organism, effect (morphology, biofilm and growth disruption): S. pneumoniae (M)
bacteria
  Target(s) (microorganisms bound by the targeting peptide): S. epidermidis; also recorded: M. luteus; also recorded: E. coli; also recorded: S. pneumoniae; also recorded: E. faecalis; also recorded: C. jeikeium; also recorded: C. jejuni

## PF-396 (LIYTILASLGVLTVLQAILGREPKAVKA; Peptide with targeting and/or antimicrobial activity)
microorganisms; E. coli
  Organism, effect: E. coli (C)
microorganisms; E. faecalis
  Organism, effect: E. faecalis (C)
microorganisms; MRSA
  Organism, effect: MRSA (C)
microorganisms; S. epidermidis
  Organism, effect: S. epidermidis (S)
bacteria
  Target(s) (microorganisms bound by the targeting peptide): S. epidermidis; also recorded: E. coli; also recorded: P. aeruginosa; also recorded: C. albicans; also recorded: E. faecalis; also recorded: C. jeikeium

## NYAVVSHT [PF-209]
microorganisms; MRSA
  Organism, effect: MRSA (I)
microorganisms; P. aeruginosa
  Organism, effect: P. aeruginosa (H)
microorganisms; S. epidermidis
  Organism, effect: S. epidermidis (C)
bacteria; [1]
  Target(s): C. albicans; also recorded: C. jeikeium; also recorded: C. jejuni

## PF-070 (SMVKSEIVDLLNGEDNDD; Peptide with targeting and/or antimicrobial activity)
microorganisms; B. subtilis
  Organism, effect: B. subtilis (D)
bacteria; microorganism the targeting peptide binds, binding in aqueous buffers that varied with peptide solubility
  Target(s): S. epidermidis; also recorded: C. jejuni

## PF-C084 (FFSVIFLFGLNYLICNSPLFNILR; Peptide with targeting and/or antimicrobial activity)
microorganisms; F. nucleatum
  Organism, effect (morphology, biofilm and growth disruption): F. nucleatum (T)
microorganisms; P. gingivalis
  Organism, effect (morphology, biofilm and growth disruption): P. gingivalis (R)
microorganisms; S. mutans
  Organism, effect (morphology, biofilm and growth disruption): S. mutans (F)
bacteria
  Target(s) (microorganism bound by the targeting peptide): A. naeslundii; also recorded: F. nucleatum; also recorded: P. gingivalis; also recorded: S. mutans

## PF-598 (MKFMLEVRNKAISAYKEITRTQI; Peptide with targeting and/or antimicrobial activity)
microorganisms; C. jejuni
  Organism, effect (morphology, biofilm and growth disruption): C. jejuni (R)
microorganisms; E. coli
  Organism, effect (morphology, biofilm and growth disruption): E. coli (C)
microorganisms; E. faecalis
  Organism, effect (morphology, biofilm and growth disruption): E. faecalis (R)
microorganisms; MRSA
  Organism, effect (morphology, biofilm and growth disruption): MRSA (D)
microorganisms; S. epidermidis
  Organism, effect (morphology, biofilm and growth disruption): S. epidermidis (R)
microorganisms; S. pneumoniae
  Organism, effect (morphology, biofilm and growth disruption): S. pneumoniae (R)
bacteria
  Target(s) (microorganism bound by the targeting peptide): S. epidermidis and M. luteus and P. mirabilis and P. aeruginosa and C. albicans and MRSA and S. pneumoniae and C. jeikeium

## PF-C137 (QRMYWFKRGFETGDFSAGDTFAELK; Peptide with targeting and/or antimicrobial activity)
microorganisms; F. nucleatum
  Organism, effect (morphology, biofilm and growth disruption): F. nucleatum (T)
bacteria
  Target(s) (microorganism bound by the targeting peptide): A. naeslundii; also recorded: F. nucleatum; also recorded: P. gingivalis; also recorded: S. mutans

## PF-297 (ISKGIDDIVYVINKILSIGNIFKIIKRK; Peptide with targeting and/or antimicrobial activity)
microorganisms; B. subtilis
  Organism, effect: B. subtilis (C)
microorganisms; S. epidermidis
  Organism, effect: S. epidermidis (C)
bacteria; [1]
  Target(s): S. epidermidis; also recorded: B. subtilis; also recorded: B. fragilis
